Data reported in patent US7659279B2, “Quinazoline derivatives and their use in the treatment of cancer” (AstraZeneca AB, priority 2003, dated 2010).

Legend:
[1] = biological target: T1, erbB2 tyrosine kinase (Homo sapiens, UniProt P04626); assay: Test (a) protein tyrosine kinase phosphorylation assay, erbB2; format: biochemical; settings: recombinant intracellular fragment; ATP at Km concentration; read-out: IC50 (nM) Test (a): Inhibition of erbB2 tyrosine kinase protein phosphorylation
T1 construct: Recombinant intracellular fragments of EGFR, erbB2 and erbB4; made in house; host or cells: baculovirus/Sf21 insect cells (cleared lysate used)
Method: (§1) a) Protein Tyrosine Kinase Phosphorylation Assays
(§2) Recombinant intracellular fragments of EGFR, erbB2 and erbB4 (accession numbers X00588, X03363 and L07868 respectively) were cloned and expressed in the baculovirus/Sf21 system. Lysates were prepared from these cells by treatment with ice-cold lysis buffer (20 mM N-2-hydroxyethylpiperizine-N′-2-ethanesulfonic acid (HEPES) pH7.5, 150 mM NaCl, 10% glycerol, 1% Triton X-100, 1.5 mM MgCl2, 1 mM ethylene glycol-bis(β-aminoethyl ether) N′,N′,N′,N′-tetraacetic acid (EGTA), plus protease inhibitors and then cleared by centrifugation.
(§3) Constitutive kinase activity of the recombinant protein was determined by its ability to phosphorylate a synthetic peptide (made up of a random co-polymer of Glutamic Acid, Alanine and Tyrosine in the ratio of 6:3:1). Specifically, Maxisorb™ 96-well immunoplates were coated with synthetic peptide ([…] of peptide in a 100 μl phosphate buffered saline (PBS) solution and incubated at 4° C. overnight). Plates were washed in PBS-T (phosphate buffered saline with 0.5% Tween 20) then in 50 mM HEPES pH 7.4 at room temperature to remove any excess unbound synthetic peptide. EGFR, ErbB2 or ErbB4 tyrosine kinase activity was assessed by incubation in peptide coated plates for 20 minutes at 22° C. in 100 mM HEPES pH 7.4, adenosine trisphosphate (ATP) at Km concentration for the respective enzyme, 10 mM MnCl2, 0.1 mM Na3VO4, 0.2 mM DL-dithiothreitol (DTT), 0.1% Triton X-100 with test compound in DMSO (final concentration of 2.5%). Reactions were terminated by the removal of the liquid components of the assay followed by washing of the plates with PBS-T.
(§4) The immobilised phospho-peptide product of the reaction was detected by immunological methods. Firstly, plates were incubated for 90 minutes at room temperature with anti-phosphotyrosine primary antibodies that were raised in the mouse (4G10 from Upstate Biotechnology). Following extensive washing, plates were treated with Horseradish Peroxidase ([…]) conjugated sheep anti-mouse secondary antibody (NXA931 from Amersham) for 60 minutes at room temperature. After further washing, HRP activity in each well of the plate was measured […] using 22′-Azino-di-[3-ethylbenzthiazoline sulfonate (6)] diammonium salt crystals (ABTS™ from Roche) as a substrate.
(§5) Quantification of colour development and thus enzyme activity was achieved by the measurement of absorbance at 405 nm on a Molecular Devices ThermoMax microplate reader. Kinase inhibition for a given compound was expressed as an IC50 value. This was determined by calculation of the concentration of compound that was required to give 50% inhibition of phosphorylation in this assay. The range of phosphorylation was calculated from the positive (vehicle plus ATP) and negative (vehicle minus ATP) control values.

[2] = tested on: KB cells (human naso-pharangeal carcinoma); assay: Test (b) KB cell proliferation assay; format: cell-based; settings: 96 h, EGF 1 ng/ml, 4 days, MTT, read-out: IC50 (nM) Test (b): EGFR driven KB cell proliferation assay
Method: b) KB Cell Proliferation Assay
This assay measures the ability of a test compound to inhibit the EGF driven proliferation of KB cells (human naso-pharangeal carcinoma obtained from the American Type Culture Collection (ATCC)).
KB cells were cultured in Dulbecco's modified Eagle's medium (DMEM) containing 10% foetal calf serum, 2 mM glutamine and non-essential amino acids at 37° C. in a 7.5% CO2 air incubator. Cells were harvested from the stock flasks using Trypsin/ethylaminediaminetetraacetic acid (EDTA). Cell density was measured using a haemocytometer and viability was calculated using trypan blue solution before being seeded at a density of 1.25×10^3 cells per well of a 96 well plate in DMEM containing 2.5% charcoal stripped serum, 2 mM glutamine and non-essential amino acids at 37° C. in 7.5% CO2 and allowed to settle for 4 hours.
Following adhesion to the plate, the cells are treated with or without EGF (final concentration of 1 ng/ml) and with or without compound at a range of concentrations in dimethylsulfoxide (DMSO) (1% final) in a final volume of 200 μl before incubation for 4 days at 37° C. in 7.5% CO2. Following the incubation period, cell numbers were determined by addition of 50 μl of 3-(4,5-Dimethylthiazol-2-yl)-2,5-diphenyltetrazolium bromide (MTT) (stock 5 mg/ml) and incubated at 37° C. in a 7.5% CO2 air incubator for 2 hours. MTT solution was then removed from the cells by aspiration, which were then allowed to air dry and were dissolved upon the addition of 100 μl of DMSO.
Absorbance of this solubilised cells was read at 540 nm to quantify cell biomass. Inhibition of proliferation was expressed as an IC50 value. This was determined by calculation of the concentration of compound that was required to give 50% inhibition of proliferation. The range of proliferation was calculated from the positive (vehicle plus EGF) and negative (vehicle minus EGF) control values.

[3] = biological target: T2, EGFR tyrosine kinase (Homo sapiens, UniProt P00533); assay: Test (a) protein tyrosine kinase phosphorylation assay, EGFR; format: biochemical; settings: recombinant intracellular fragment; ATP at Km concentration; read-out: IC50 (nM) Test (a): Inhibition of EGFR tyrosine kinase protein phosphorylation
T2 construct: Recombinant intracellular fragments of EGFR, erbB2 and erbB4; made in house; host or cells: baculovirus/Sf21 insect cells (cleared lysate used)
Method: as §1
This test measures the ability of a test compound to inhibit the phosphorylation of a tyrosine containing polypeptide substrate by EGFR tyrosine kinase enzyme.
as §2, §3, §4, §5

T2 sequence (P00533 669-1210 limits assumed): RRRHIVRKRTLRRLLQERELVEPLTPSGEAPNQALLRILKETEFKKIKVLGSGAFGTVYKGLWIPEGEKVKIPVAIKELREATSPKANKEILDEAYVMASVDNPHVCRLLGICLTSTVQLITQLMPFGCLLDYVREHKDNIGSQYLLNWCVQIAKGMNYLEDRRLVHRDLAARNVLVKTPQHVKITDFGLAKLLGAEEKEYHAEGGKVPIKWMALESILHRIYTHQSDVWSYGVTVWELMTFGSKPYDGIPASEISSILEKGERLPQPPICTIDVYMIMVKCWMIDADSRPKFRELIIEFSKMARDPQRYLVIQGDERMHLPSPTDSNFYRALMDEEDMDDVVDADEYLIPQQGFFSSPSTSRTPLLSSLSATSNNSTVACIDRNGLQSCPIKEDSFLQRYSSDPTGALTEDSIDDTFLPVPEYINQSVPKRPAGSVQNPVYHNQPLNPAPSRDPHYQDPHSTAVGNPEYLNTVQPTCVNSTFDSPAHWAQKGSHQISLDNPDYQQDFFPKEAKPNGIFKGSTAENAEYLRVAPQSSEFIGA
T1 sequence (P04626 676-1255 limits assumed): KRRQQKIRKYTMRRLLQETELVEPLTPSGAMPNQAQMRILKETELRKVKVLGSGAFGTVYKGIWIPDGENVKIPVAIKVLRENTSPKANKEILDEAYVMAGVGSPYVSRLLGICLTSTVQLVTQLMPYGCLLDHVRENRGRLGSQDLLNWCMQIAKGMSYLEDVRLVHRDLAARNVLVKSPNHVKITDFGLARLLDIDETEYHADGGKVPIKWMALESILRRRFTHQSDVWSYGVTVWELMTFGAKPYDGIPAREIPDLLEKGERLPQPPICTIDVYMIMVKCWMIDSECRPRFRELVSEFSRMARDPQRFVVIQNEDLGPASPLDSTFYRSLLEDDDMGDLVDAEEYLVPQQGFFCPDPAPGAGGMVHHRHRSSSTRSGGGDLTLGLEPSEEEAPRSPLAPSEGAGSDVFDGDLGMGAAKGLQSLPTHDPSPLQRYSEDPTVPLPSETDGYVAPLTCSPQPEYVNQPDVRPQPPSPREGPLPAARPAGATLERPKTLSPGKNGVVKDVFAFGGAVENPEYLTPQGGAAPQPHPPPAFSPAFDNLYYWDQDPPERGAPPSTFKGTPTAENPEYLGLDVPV

| SMILES | IC50 [1] | IC50 [2] | IC50 [3] |
| --- | --- | --- | --- |
| CCOCCOc1cc(OC[C@H]2CCCN2C(=O)CO)c2c(Nc3ccc(F)c(Cl)c3)ncnc2c1 [Example 18, 2-[(2R)-2-({[4-[3-Chloro-4-fluoroanilino]-7-(2-ethoxyethoxy)quinazolin-5-yl]oxy}methyl)pyrrolidin-1-yl]-2-oxoethanol] | 85 nM | 99 nM | 8 nM |
| COc1cc(OC[C@@H]2C[C@H](O)CN2C(=O)CN(C)C)c2c(Nc3ccc(F)c(Cl)c3)ncnc2c1 [Example 31, (3S,5S)-5-[({4-[3-Chloro-4-fluoroanilino]-7-methoxyquinazolin-5-yl}oxy)methyl]-1-(N,N-dimethylglycyl)pyrrolidin-3-ol] | 532 nM | 112 nM | 42 nM |
| COc1cc(OC[C@@H]2C[C@@H](O)CN2C(=O)CO)c2c(Nc3ccc(F)c(Cl)c3)ncnc2c1 [Example 25, (3R,5S)-5-[({4-[3-Chloro-4-fluoroanilino]-7-methoxyquinazolin-5-yl}oxy)methyl]1-glycoloylpyrrolidin-3-ol] | 1910 nM | 156 nM | 32 nM |
| COc1cc(OC[C@H]2C[C@@H](O)CN2C(=O)CO)c2c(Nc3ccc(F)c(Cl)c3)ncnc2c1 [Example 32, (3R,5R)-5-[({4-[3-Chloro-4-fluoroanilino]-7-methoxyquinazolin-5-yl}oxy)methyl]-1-glycoloylpyrrolidin-3-ol] | 215 nM | 118 nM | 18 nM |
| COCC(=O)N1C[C@@H](O)C[C@@H]1COc1cc(OC)cc2ncnc(Nc3ccc(F)c(Cl)c3)c12 [Example 23, (3S,5R)-5-[({4-[3-Chloro-4-fluoroanilino]-7-methoxyquinazolin-5-yl}oxy)methyl]-1-(methoxyacetyl)pyrrolidin-3-ol] | 1730 nM | 288 nM | 56 nM |

Next, values leading:

| IC50 [1] | IC50 [2] | IC50 [3] | SMILES |
| --- | --- | --- | --- |
| 358 nM | 28 nM | 1 nM | COc1cc(OC[C@H]2CCCN2C(C)=O)c2c(Nc3ccc(F)c(Cl)c3)ncnc2c1 [Example 13, 5-{[(2R)-1-Acetylpyrrolidin-2-yl]methoxy}-N-(3-chloro-4-fluorophenyl)-7-methoxyquinazolin-4-amine] |
| 275 nM | 91 nM | 9 nM | COc1cc(OC[C@H]2CCCN2C(=O)CO)c2c(Nc3ccc(F)c(Cl)c3)ncnc2c1 [Example 3, 2-{(2R)-2-[({4-[3-Chloro-4-fluoroanilino]-7-methoxyquinazolin-5-yl}oxy)methyl]pyrrolidin-1-yl}-2-oxoethanol] |
| 61 nM | 75 nM | 1 nM | COc1cc(OC[C@H]2C[C@H](O)CN2C(C)=O)c2c(Nc3ccc(F)c(Cl)c3)ncnc2c1 [Example 22, (3S,5R)-1-Acetyl-5-[({4-[3-chloro-4-fluoroanilino]-7-methoxyquinazolin-5-yl}oxy)methyl]pyrrolidin-3-ol] |
| 1630 nM | 130 nM | 57 nM | COc1cc(OC[C@@H]2CCCN2C(=O)CN2CCCC2)c2c(Nc3ccc(F)c(Cl)c3)ncnc2c1 [Example 6, N-(3-Chloro-4-fluorophenyl)-7-methoxy-5-{[(2S)-1-(pyrrolidin-1-ylacetyl)pyrrolidin-2-yl]methoxy}quinazolin-4-amine] |
| 252 nM | 138 nM | 39 nM | COc1cc(OC[C@H]2CCCN2C(=O)CN(C)C)c2c(Nc3ccc(F)c(Cl)c3)ncnc2c1 [Example 4] |
| 52 nM | 128 nM | 1 nM | O=C(CO)N1CCC[C@@H]1COc1cc(OCCO)cc2ncnc(Nc3ccc(F)c(Cl)c3)c12 [Example 16, 2-[(2R)-2-({[4-[3-Chloro-4-fluoroanilino]-7-(2-hydroxyethoxy)quinazolin-5-yl]oxy}methyl)pyrrolidin-1-yl]-2-oxoethanol] |
| 1850 nM | 141 nM | 70 nM | COc1cc(OC[C@@H]2CCCN2C(=O)CN(C)C)c2c(Nc3ccc(F)c(Cl)c3)ncnc2c1 [Example 2, N-(3-Chloro-4-fluorophenyl)-5-({(2S)-1-[(dimethylamino)acetyl]pyrrolidin-2-yl}methoxy)-7-methoxyquinazolin-4-amine] |
